Assay: Cytotoxicity against human HepG2 cells assessed as reduction in cell viability incubated for 24 hrs by MTT assay
Type: toxicity, cell-based

| Compound | IC50 at 24 h [µM] |
| --- | --- |
| C[C@@H]1CC(=O)c2c(O)cccc2[C@@H]1O | 3000 |
| C[C@@H]1CC(=O)c2c(O)cccc2[C@H]1O | 1000 |
| CC1=CC(=O)c2c(O)cccc2C1=O [PLUMBAGIN] | 14 |

— ChEMBL document CHEMBL6121012, “Chemical Basis of the Traditional Ayurvedic Detoxification Process of the Toxic Medicinal Plant Plumbago zeylanica” (J Nat Prod, 2025)
